Assay results reported in patent publication US10426815B2, “Prevention and treatment of itch with an MRGPR antagonist” (THE GENERAL HOSPITAL CORPORATION, priority 2015, dated 2019).

Tested on: human LAD2 mast cells
Assay: Human LAD2 mast cell degranulation assay (β-hexosaminidase release)
Type: cell-based
Conditions: LAD2 cells preincubated with 100 μM QWF for 10 min
Method: The human LAD2 mast cell line (from D. Metcalfe, National Institute of Allergy and Infectious Diseases, NIH, Bethesda, Md.) was cultured in StemPro-34 SFM medium (LIFE TECHNOLOGIES) supplemented with 2 mM L-glutamine, 100 U/ml penicillin, 100 μg/ml streptomycin, and 100 ng/ml recombinant human stem cell factor (PEPROTECH). The cells were maintained at 0.25-5×10^5 cells/ml at 37° C. and 5% CO2 and hemi-depleted each week.
Degranulation was measured as described previously (36). In brief, LAD2 cells were preincubated with 100 μM QWF for 10 min before activation by agonists at indicated concentrations for 30 min. The level of mast cell degranulation was assessed by the release of β-hexosaminidase in mast cell granules, quantified by the level of its substrate p-nitrophenyl N-acetyl-β-D-glucosamide (PNAG) digested in a colorimetric assay.

Boc-Gln-D-Trp(Formyl)-Phe benzyl ester trifluoroacetate [QWF]
significantly inhibits: inhibition of degranulation induced by SP | inhibition of degranulation induced by atracurium | inhibition of degranulation induced by ciprofloxacin | inhibition of degranulation induced by compound 48/80
